Assay results from ChEMBL document CHEMBL1134045, “Inhibition of BCRP-mediated drug efflux by fumitremorgin-type indolyl diketopiperazines” (Bioorg Med Chem Lett, 2001).

How the values were obtained:
T6400 = assay: Relative cellular accumulation of mitoxantrone determined with the compound at 2.5 uM and mitoxantrone at 10 uM on T6400 mouse cell line; assay type: functional
AIK-T8 = assay: Ability to inhibit […] activity at 2.5 uM and 200 ng/ml PSC833 in a mitoxantrone accumulation assay on T8 human cell line; assay type: ADME, cell-based; conditions: aik-t8, 2.5 µM

Structure (SMILES) | Fluorescence (T6400) [%] | Fluorescence (AIK-T8) [%]
O=C1NC(N2CCCC2)C(=O)N2C(c3ccccc3)c3[nH]c4ccccc4c3C[C@@H]12 (stereo partly drawn) | 54 | 176
CCCCCC1c2[nH]c3ccccc3c2C[C@H]2C(=O)NC(COC(C)(C)C)C(=O)N12 (stereo partly drawn) | 275 | 607
CCCCCC1c2[nH]c3ccccc3c2C[C@H]2C(=O)NC(CCCCNC(=O)OC(C)(C)C)C(=O)N12 (stereo partly drawn) | 302 | 599
CC1NC(=O)[C@@H]2Cc3c([nH]c4ccccc34)C(C(C)C)N2C1=O (stereo partly drawn) | 49 | 156
CCC1c2[nH]c3ccccc3c2C[C@H]2C(=O)NC(Cc3ccccc3)C(=O)N12 (stereo partly drawn) | 63 | 228
CC(C)(C)OC(=O)CCC1NC(=O)[C@@H]2Cc3c([nH]c4ccccc34)C(C3CCCCC3)N2C1=O (stereo partly drawn) | 252 | 638
CC(C)C1c2[nH]c3ccccc3c2C[C@H]2C(=O)NC(Cc3c[nH]c4ccccc34)C(=O)N12 (stereo partly drawn) | 96 | 310
O=C1NC(Cc2ccccc2)C(=O)N2C(c3ccccc3)c3[nH]c4ccccc4c3C[C@@H]12 (stereo partly drawn) | 112 | 376
CCC1c2[nH]c3ccccc3c2C[C@H]2C(=O)NC(CCC(=O)OC(C)(C)C)C(=O)N12 (stereo partly drawn) | 80 | 313
CCC1c2[nH]c3ccccc3c2C[C@H]2C(=O)NC(C)C(=O)N12 (stereo partly drawn) | 43 | 114
CC(C)CC1c2[nH]c3ccccc3c2C[C@H]2C(=O)NC(Cc3c[nH]c4ccccc34)C(=O)N12 (stereo partly drawn) | 279 | 535
CCCCCC1c2[nH]c3ccccc3c2C[C@H]2C(=O)NC(C)C(=O)N12 (stereo partly drawn) | 175 | 436
CCCCCC1c2[nH]c3ccccc3c2C[C@H]2C(=O)NC(Cc3c[nH]c4ccccc34)C(=O)N12 (stereo partly drawn) | 242 | 601
CCC1c2[nH]c3ccccc3c2C[C@H]2C(=O)NC(Cc3c[nH]c4ccccc34)C(=O)N12 (stereo partly drawn) | 96 | 354
CC(C)C1c2[nH]c3ccccc3c2C[C@H]2C(=O)NC(CCC(=O)OC(C)(C)C)C(=O)N12 (stereo partly drawn) | 149 | 381
CC(C)CC1c2[nH]c3ccccc3c2C[C@H]2C(=O)NC(CCCCNC(=O)OC(C)(C)C)C(=O)N12 (stereo partly drawn) | 305 | 649
CC(C)(C)OC(=O)NCCCCC1NC(=O)[C@@H]2Cc3c([nH]c4ccccc34)C(C3CCCCC3)N2C1=O (stereo partly drawn) | 278 | 629
CC(C)C1c2[nH]c3ccccc3c2C[C@H]2C(=O)NC(Cc3ccccc3)C(=O)N12 (stereo partly drawn) | 104 | 359
O=C1NC(Cc2c[nH]c3ccccc23)C(=O)N2C(c3ccccc3)c3[nH]c4ccccc4c3C[C@@H]12 (stereo partly drawn) | 125 | 376
CC(C)CC1c2[nH]c3ccccc3c2C[C@H]2C(=O)NC(COC(C)(C)C)C(=O)N12 (stereo partly drawn) | 216 | 522
CC(C)(C)OC(=O)CCC1NC(=O)[C@@H]2Cc3c([nH]c4ccccc34)C(c3ccccc3)N2C1=O (stereo partly drawn) | 100 | 313

Structure (SMILES) | Fluorescence (T6400) [%] | Fluorescence (AIK-T8) [%]
CC(C)CC1c2[nH]c3ccccc3c2C[C@H]2C(=O)NC(C)C(=O)N12 (stereo partly drawn) | 80 | 333
CC(C)CC1c2[nH]c3ccccc3c2C[C@H]2C(=O)NC(CCC(=O)OC(C)(C)C)C(=O)N12 (stereo partly drawn) | 348 | 711
CCC1c2[nH]c3ccccc3c2C[C@H]2C(=O)NC(N3CCCC3)C(=O)N12 (stereo partly drawn) | 42 | 119
CCCCCC1c2[nH]c3ccccc3c2C[C@H]2C(=O)NC(N3CCCC3)C(=O)N12 (stereo partly drawn) | 119 | 370
CC(C)CC1c2[nH]c3ccccc3c2C[C@H]2C(=O)NC(N3CCCC3)C(=O)N12 (stereo partly drawn) | 56 | 187
CCC1c2[nH]c3ccccc3c2C[C@H]2C(=O)NC(CCCCNC(=O)OC(C)(C)C)C(=O)N12 (stereo partly drawn) | 74 | 313
CC(C)CC1c2[nH]c3ccccc3c2C[C@H]2C(=O)NC(Cc3ccccc3)C(=O)N12 (stereo partly drawn) | 191 | 431
CC(C)C1c2[nH]c3ccccc3c2C[C@H]2C(=O)NC(N3CCCC3)C(=O)N12 (stereo partly drawn) | 45 | 136
CCC1c2[nH]c3ccccc3c2C[C@H]2C(=O)NC(COC(C)(C)C)C(=O)N12 (stereo partly drawn) | 71 | 225
O=C1NC(Cc2c[nH]c3ccccc23)C(=O)N2C(C3CCCCC3)c3[nH]c4ccccc4c3C[C@@H]12 (stereo partly drawn) | 158 | 410
CC(C)(C)OCC1NC(=O)[C@@H]2Cc3c([nH]c4ccccc34)C(C3CCCCC3)N2C1=O (stereo partly drawn) | 276 | 672
CC1NC(=O)[C@@H]2Cc3c([nH]c4ccccc34)C(c3ccccc3)N2C1=O (stereo partly drawn) | 53 | 181
O=C1NC(Cc2ccccc2)C(=O)N2C(C3CCCCC3)c3[nH]c4ccccc4c3C[C@@H]12 (stereo partly drawn) | 91 | –
CCCCCC1c2[nH]c3ccccc3c2C[C@H]2C(=O)NC(CCC(=O)OC(C)(C)C)C(=O)N12 (stereo partly drawn) | 283 | 592
O=C1NC(N2CCCC2)C(=O)N2C(C3CCCCC3)c3[nH]c4ccccc4c3C[C@@H]12 (stereo partly drawn) | 85 | 313
CC(C)C1c2[nH]c3ccccc3c2C[C@H]2C(=O)NC(COC(C)(C)C)C(=O)N12 (stereo partly drawn) | 93 | 334
CC(C)C1c2[nH]c3ccccc3c2C[C@H]2C(=O)NC(CCCCNC(=O)OC(C)(C)C)C(=O)N12 (stereo partly drawn) | 133 | 452
CC(C)(C)OCC1NC(=O)[C@@H]2Cc3c([nH]c4ccccc34)C(c3ccccc3)N2C1=O (stereo partly drawn) | 106 | 339
CCCCCC1c2[nH]c3ccccc3c2C[C@H]2C(=O)NC(Cc3ccccc3)C(=O)N12 (stereo partly drawn) | 199 | 514
CC(C)(C)OC(=O)NCCCCC1NC(=O)[C@@H]2Cc3c([nH]c4ccccc34)C(c3ccccc3)N2C1=O (stereo partly drawn) | 85 | 305
CC1NC(=O)[C@@H]2Cc3c([nH]c4ccccc34)C(C3CCCCC3)N2C1=O (stereo partly drawn) | 74 | 268
